Results from PubChem BioAssay AID1996.
In brackets after ≈: the same amount, converted by molar mass.

Details: buffer; pH 7.4; 200.0 µM

| solubility kinetic | SMILES |
| --- | --- |
| 7.5 µg/mL (≈ 24.3 µM) | Cc1ccc(CCC(=O)Nc2ccc([N+](=O)[O-])cc2Cl)o1 |
| > 45.4 µg/mL | O=C1CCc2cc(S(=O)(=O)Nc3ccccc3)ccc2N1 |
| > 41.5 µg/mL | COCCNC(=O)c1ccc(-c2csc(C)n2)cc1 |
| 0.9 µg/mL (≈ 2.72 µM) | COc1cccc2[nH]c3c(N4CCc5ccccc5C4)ncnc3c12 |
| 1.6 µg/mL (≈ 5.65 µM) | Cc1[nH]c2ccccc2c1C(=O)COc1ccccc1F |
| 9.6 µg/mL (≈ 31.8 µM) | O=[N+]([O-])c1cccnc1N1CCN(c2ccccc2F)CC1 |
| 32.2 µg/mL (≈ 124 µM) | N#CCCOC1(C#CCN2CCCC2)CCCCC1 |
| 7.5 µg/mL (≈ 21.8 µM) | CC(=O)Nc1ccc(C(=O)NCC(=O)OCc2ccccc2F)cc1 |
| 41.1 µg/mL (≈ 147 µM) | CC(c1ccccc1)C1CC(=O)N(c2ccccc2)C1=O (stereo not given) |
| 47.6 µg/mL (≈ 146 µM) | CCCN1CCC(NC(=O)Nc2cc(Cl)ccc2OC)CC1 |
| 24.4 µg/mL (≈ 93.8 µM) | Cc1nc(/C(N)=N/OC(=O)Cc2ccccc2)no1 |
| > 47.8 µg/mL | O=C(Cn1c(NCCO)nc2ccccc21)NCC1CCCO1 (stereo not given) |
| 7.9 µg/mL (≈ 29 µM) | O=c1oc(Nc2ccccc2Cl)nc2ccccc12 |
| 56.7 µg/mL (≈ 139 µM) | CNc1c(-n2cc(C(=O)OC)c(C(=O)OC)c2C(=O)OC)c(=O)n(C)c(=O)n1C |
| 0.7 µg/mL (≈ 2.11 µM) | Cc1ccccc1NC(=O)Cn1cc(C(=O)C2CC2)c2ccccc21 |
| > 43.7 µg/mL | Cc1ccc(OCCC(=O)OC(C)C(=O)NC2CC2)cc1 (stereo not given) |
| 31.8 µg/mL (≈ 106 µM) | Cc1ccc(OCc2ccc(C(=O)N3CCCC3)o2)cc1C |
| 37.3 µg/mL (≈ 134 µM) | Nc1ncccc1OCc1ccc(Br)cc1 |
| 10 µg/mL (≈ 37.5 µM) | COc1ccc(NC(=O)c2onc(C)c2Cl)cc1 |

| solubility kinetic | SMILES |
| --- | --- |
| > 55.7 µg/mL | CCN(CC(=O)Nc1c(F)cccc1F)C(=O)Cc1c[nH]c2ccccc12 |
| > 42.1 µg/mL | O=C(Nc1nncs1)C1CC(=O)N(C2CCCC2)C1 (stereo not given) |
| 46.1 µg/mL (≈ 129 µM) | CCCCC(=O)NC1(C(F)(F)F)NC(=O)N(Cc2ccccc2)C1=O (stereo not given) |
| > 56.2 µg/mL | CCN(CC)C(=O)CSc1nnc(SC(C)C(=O)NC2CC2)s1 (stereo not given) |
| 1.7 µg/mL (≈ 5.46 µM) | CCC(=O)N/C(=N/c1nc(C)cc(C)n1)Nc1ccc(C)cc1 |
| < 0.2 µg/mL | CCc1ccc2oc(C(=O)Nc3nonc3C)c(C)c2c1 |
| > 50.2 µg/mL | CCOC(=O)NC(=S)Nc1c(C)n(C)n(-c2ccccc2)c1=O |
| 1.1 µg/mL (≈ 3.87 µM) | Cc1ccc(-c2cn(-c3ccccc3F)c(=S)[nH]2)cc1 |
| > 63.4 µg/mL | CC(=O)N1CCN(CC(=O)Nc2cc(S(=O)(=O)N3CCCCC3)ccc2C)CC1 |
| 6.5 µg/mL (≈ 23.4 µM) | CC(=O)Nc1ccc(Nc2ncnc3ccccc23)cc1 |
| 9.2 µg/mL (≈ 29.5 µM) | CCc1ccc(N/C(=N/c2nc(C)cc(C)n2)NC(C)=O)cc1 |
| 43.4 µg/mL (≈ 140 µM) | CCN(CC)C(=O)CSc1ncnc2sc(C)c(C)c12 |
| 33.6 µg/mL (≈ 127 µM) | COC(=O)c1ccc(OC(=O)N2CCOCC2)cc1 |
| > 50.4 µg/mL | O=C(O)C1CCC(=O)N(C2CCCCC2)C1c1ccccc1Cl (stereo not given) |
| 22.1 µg/mL (≈ 47.8 µM) | COc1ccc(S(=O)(=O)N2CCCCCC2)cc1NC(=O)Cc1ccc(OC)c(OC)c1 |
| > 32.2 µg/mL | CCC(C)CCCCNC1=NCCS1 (stereo not given) |
| 3.4 µg/mL (≈ 12.4 µM) | COc1ccc(NC(=O)Nc2cnccn2)c(OC)c1 |
| > 39.3 µg/mL | CN(C(=O)c1ccc2ccccc2c1)c1ccccn1 |
| 4.9 µg/mL (≈ 16.2 µM) | CCCCCOC(=O)C1=C(C)NC(=O)NC1c1ccccc1 (stereo not given) |

| solubility kinetic | SMILES |
| --- | --- |
| > 33.3 µg/mL | O=C(NCc1ccco1)C(=O)N1CCCC1 |
| > 38.5 µg/mL | O=C(c1ccc(Cl)cc1)n1cnc2ccccc21 |
| 5.1 µg/mL (≈ 16.8 µM) | CSc1cccc(NC(=S)NC(=O)c2cccnc2)c1 |
| > 50.8 µg/mL | CCc1nnc(NC(=O)CCNC(=O)c2ccccc2Cl)s1 |
| 51.2 µg/mL (≈ 144 µM) | N#Cc1c(C(F)(F)F)cc(-c2ccc(F)cc2)nc1SCC(=O)O |
| > 81.9 µg/mL | COc1ccc(NC(=O)[C@@H](NS(=O)(=O)c2cccc(Cl)c2)C(C)C)cc1S(=O)(=O)N1CCOCC1 |
| > 49.9 µg/mL | CC1CCCC(C)N1C(=O)COC(=O)CNC(=O)c1ccccc1 (stereo not given) |
| > 39.8 µg/mL | CCOc1cc(C(=S)N2CCCC2)ccc1OC |
| > 50 µg/mL | CC1CCCCC1NC(=O)Cn1cnc2c1c(=O)n(C)c(=O)n2C (stereo not given) |
| 2.5 µg/mL (≈ 7.34 µM) | NS(=O)(=O)c1ccc(NC(=O)COc2ccc(Cl)cc2)cc1 |
| 29.5 µg/mL (≈ 92.7 µM) | CC(NC(=O)c1ccc([N+](=O)[O-])o1)C12CC3CC(CC(C3)C1)C2 (stereo not given) |
| > 51.4 µg/mL | COc1ccc(CN(C)CC(=O)NC(C)c2ccccc2)cc1OC (stereo not given) |
| 38.8 µg/mL (≈ 146 µM) | O=C(COc1ccc(F)cc1)N1CCCCCCC1 |
| 42.7 µg/mL (≈ 138 µM) | CCCCOc1cc(C(=O)OCCN(CC)CC)ccc1N |
| > 45.7 µg/mL | Cc1ccc(C(C)C)c(OCC(=O)NC2CCN(C)CC2)c1 |
| > 50.2 µg/mL | N#Cc1ccccc1NC(=O)CN1CCN(Cc2ccccc2)CC1 |
| 35.1 µg/mL (≈ 101 µM) | Cc1ccc(N(CC(=O)Nc2c(C)cccc2C)S(C)(=O)=O)cc1 |
| > 55 µg/mL | CCN(C(=O)COC(=O)CN1C(=O)c2ccccc2C1=O)c1ccccc1 |
| > 55.5 µg/mL | CCOc1ncccc1C(=O)OCC(=O)c1ccc(Br)s1 |

| SMILES | solubility kinetic |
| --- | --- |
| CCN(Cc1ccncc1)Cc1ccc(Br)cc1.O=C(O)C(=O)O | 30.6 µg/mL |
| Cc1ccc(CN2CCCN(Cc3ccccc3C)S2(=O)=O)cc1 | 0.5 µg/mL (≈ 1.45 µM) |
| COc1ccc(CCNCc2sccc2C)cc1OC.Cl | 36 µg/mL |
